From patent publication US12617772B2, “Hydroxypyridine HSD17B13 inhibitors and uses thereof” (INIPHARM, INC., priority 2021, dated 2026) come the findings set out here.

Some results are limits rather than exact numbers.

This assay deals with T1, HSD17B13 (Homo sapiens, UniProt Q7Z5P4).
T1 construct: His; made in house; host or cells: E. coli
T1 sequence (Q7Z5P4 20-300): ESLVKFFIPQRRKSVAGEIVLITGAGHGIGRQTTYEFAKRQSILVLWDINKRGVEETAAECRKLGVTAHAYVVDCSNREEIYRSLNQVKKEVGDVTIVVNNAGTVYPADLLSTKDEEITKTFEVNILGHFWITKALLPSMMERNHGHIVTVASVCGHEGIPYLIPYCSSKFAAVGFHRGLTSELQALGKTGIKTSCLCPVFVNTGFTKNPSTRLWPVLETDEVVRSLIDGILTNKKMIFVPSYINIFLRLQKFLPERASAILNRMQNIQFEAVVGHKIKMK
The assay is described as follows: LC/MS estrone detection assay: conversion of estradiol to estrone by HSD17B13. In kind it is biochemical. The following applies: 4 μM estradiol, 6 mM NAD, 30 nM HSD17B13 enzyme (E. coli expressed His-tagged), 2 hours at 26.5° C. The method, then: Example A: Estrone Detection Assay for Evaluation of HSD17ß13 Activity and Identification of Inhibitors
The liquid chromatography/mass spectrometry (LC/MS) estrone detection assay monitors the conversion of estradiol to estrone by HSD17B13. This assay was undertaken in a 96 wp format (Eppendorf deep well Plate 96/500) in an 80 μl reaction volume containing: 4 μM of Estradiol (E2; Cayman; #10006315), 6 mM NAD (Sigma; #N0623) and 30 nM HSD17B13 enzyme (in-house; E. coli expressed His-tagged, purified, soluble protein) in a reaction containing […] potassium phosphate buffer pH 7.4, with 0.5% vehicle (DMSO). Reactions were incubated for 2 hours at 26.5° C., and estradiol (E2) conversion to estrone (E1) was quantitated by LC-MS/MS based analyte detection for both E2 and E1 using LCMS grade reagents.
Reactions were terminated by the addition of two volumes of acetonitrile (MeCN: LCMS grade; CAS #75/05/8) containing deuterated (D4)-E1 used as internal standard (Clear Synth: #CS-T-54273; 500 ng/ml final concentration). Samples were applied to pre-prepared Bond Elut-C18 extraction cartridges (3 mL; Agilent; #12102028), washed and eluted in MeCN. Eluates were dried under nitrogen and re-suspended in 60% methanol (LCMS grade methanol; CAS #67/56/1) before submission for analysis. Aqueous linearity for E2 and E1 were included for quantification.
Analysis of samples was undertaken on a XBridge BEH C18 column (Waters; #186003033) using 0.1% Diethyl Amine in MeCN (mobile phase A; DEA CAS #109-89-7) and 0.1% Diethyl Amine in milli-Q water (mobile phase B) in a 3 min gradient allowing 25% B. Analytes were detected in negative mode using MRM analysis, with E2 having a RT of 1.85 min and E1 having a RT of 2 min. Activity of the enzyme, in the absence of NAD^+, was used to evaluate specificity of conversion. Enzyme activity in the presence of test samples was expressed as a percentage of the uninhibited enzyme activity, and plotted versus inhibitor concentration. Non-linear regression was performed using a four-parameter logistic model and GraphPad Prism software (GraphPad Software, La Jolla, CA). All assessments were undertaken in duplicate evaluations and pooled during extraction process and subsequently injected as duplicates for LC-MS/MS analysis.

The term IC50 denotes the concentration that gives 50% inhibition. Lower therefore signals greater potency in that assay. `O=C(Nc1cccc2ncn(CCc3ccccc3OC(F)(F)F)c(=O)c12)c1ccc(O)c(C(F)(F)F)n1` [Example 1, 5-hydroxy-N-(4-oxo-3-(2-(trifluoromethoxy)phenethyl)-3,4-dihydroquinazolin-5-yl)-6-(trifluoromethyl)picolinamide] displayed an IC50 of at most 100 nM.

In the case of `O=C(Nc1cccc2ncn(CCc3ccccc3C(F)(F)F)c(=O)c12)c1ccc(O)c(C(F)(F)F)n1` [Example 2, 5-hydroxy-N-(4-oxo-3-(2-(trifluoromethyl)phenethyl)-3,4-dihydroquinazolin-5-y1)-6-(trifluoromethyl)picolinamide], the IC50 lay within 100 to 500 nM.

`O=C(Nc1cccc2ncn(Cc3ccccc3OC(F)(F)F)c(=O)c12)c1ccc(O)c(C(F)(F)F)n1` [Example 3, 5-hydroxy-N-(4-oxo-3-{[2-(trifluoromethoxy)phenyl]methyl}-3,4-dihydroquinazolin-5-yl)-6-(trifluoromethyl) pyridine-2-carboxamide] had a concentration for half-maximal inhibition (IC50) of at most 100 nM.

Molecule `CC(C)(C)CCNC(=O)c1sccc1NC(=O)c1ccc(O)c(C(F)(F)F)n1` [Example 5, N-(2-((3,3-dimethylbutyl)carbamoyl)thiophen-3-y1)-5-hydroxy-6-(trifluoromethyl) picolinamide] had a half-inhibitory concentration (IC50) of at most 100 nM.

The molecule `COc1ccccc1CCn1cnc2cccc(NC(=O)c3ccc(O)c(C(F)(F)F)n3)c2c1=O` [Example 6, 5-hydroxy-N-(3-(2-methoxyphenethyl)-4-oxo-3,4-dihydroquinazolin-5-yl)-6-(trifluoromethyl) picolinamide] returned an IC50 of at most 100 nM.

With `O=C(Nc1cc(Cl)sc1C(=O)NCCc1ccccc1OC(F)(F)F)c1ccc(O)c(C(F)(F)F)n1` [Example 7, N-(5-chloro-2-((2-(trifluoromethoxy)phenethyl)carbamoyl)thiophen-3-y1)-5-hydroxy-6-(trifluoromethyl)picolinamide], the half-maximal inhibitory concentration (IC50) lay within 100 to 500 nM.
